Read-outs that look alike come from different tables or passages of the source.
How the values were obtained:
Amaranthus retroflexus = assay: In planta growth experiment, A. retroflexus; assay type: in vivo; details: shoots sprayed, 3 mM
Source text: Seeds of Amaranthus retroflexus L. (Herbiseed, Twyford, UK) and Brassica napus L. cv. Mozart (Norddeutsche Pflanzenzucht Hans-Georg Lembke KG, Holtsee, Germany) were sown in vermiculite for germination. When cotyledons were fully expanded, seedlings were transplanted into plastic pots with a volume of 0.230 L filled with a substrate containing 50% bottom ash (0–4 mm), 30% peat and 20% pumice gravel (0–4 mm). Plants were watered every other day with 0.03% Hakaphos® Grün solution (Compo Expert GmbH, Münster, Germany) by sub-irrigation. Plants were grown in a climate chamber at 22 °C/20 °C day/night temperature and a day/night length of 16 h/8 h. Relative humidity was adjusted to 70% and light intensity was 320 μmol m^−2 s^−1 PAR (Photosynthetically Active Radiation) at plant level.
When seedlings reached the two-leaf growth stage, plant shoots were sprayed from the top with treatment solutions using spray bottles with a spraying angle of 35° (10 ml, neoLab Migge Laborbedarf-Vertriebs GmbH, Heidelberg, Germany). Treatment solutions were applied from a height of 8.5 cm above the pots. Each pot was sprayed once with a solution volume of 0.135 ml. Treatment solutions contained 2.4% (v/v) DMSO (dimethylsulfoxide, Duchefa Biochemie, Haarlem, the Netherlands), 0.1% (v/v) Tween® and the respective compound at a concentration of 3 mM. The control treatment contained 2.4% (v/v) DMSO, and 0.1% (v/v) Tween20. Further details are given in the Supplementary Information. […]
Experimental design and assessments of in planta experiments
We tested eleven compounds in a first experiment. In a follow-up experiment we tested selected […]
chalcone. Each treatment was repeated 12 times, except for oilseed rape in the second experiment (n=10). Pots were arranged in the growth chamber according to a fully randomized design. Initial growth of the second leaf of A. retroflexus plants was monitored by aquiring images of each plant from above from day zero to day two after treatment. Images were taken […]
from a fixed distance at 90° view angle using the camera Canon EOS 70D equipped with a Canon EF 14 mm/2.8 L II USM lens. Leaf area of single leaves was measured using the ImageJ software31, by drawing the leaf contours using a drawing tablet (Cintiq 22HD, Wacom Europe GmbH, Krefeld, Germany). Conversion of pixel to cm was achieved by using a target of known size inside the image. Six days after the treatment, half of the plants were harvested. Leaf area was assessed using a leaf area meter (LI3100C Area Meter, LI-Cor, Lincoln, Nebraska, USA) and samples were oven-dried at 65°C for seven days to obtain dry weight . Thirteen days after the treatment, this procedure was repeated with the second half of plants.
Chlorophyll fluorescence measurements […]
6 mm leaf discs were cut out of the second leaf and immediately placed into 96-well-plates filled with 300 µL 0.125 % Hoagland’s solution with 1 mM MES-KOH (MES-monohydrate, Merck, Darmstadt, Germany) buffered to a pH of 6.5. The treatment solution contained 1.6 % (v/v) DMSO, 0.1 % (v/v) Tween® 20 and 2',3',4',3,4-Pentahydroxychalcone at a concentration of 2 mM. The control treatment contained 1.6 % (v/v) DMSO, 0.1 % (v/v) Tween® 20. Each leaf disc was treated with 1.5 µL solution placed on top of the leaf discs. Plates were sealed with Parafilm and placed into a climate cabinet with 12h/12h day/night-length and a temperature of 22°C at a light intensity of 130 µmol m-2 s-1. 96 hours after treatment, chlorophyll fluorescence measurements were performed on leaf discs using an Imaging PAM M-Series fluorescence camera (Heinz Walz GmbH, Effeltrich, Germany). Leaf discs were dark adapted for 30 minutes, minimum and maximum chlorophyll fluorescence were obtained and leaf discs were illuminated for 30 minutes

[1] = tested on: Escherichia coli K-12 MG1655; assay: Bacterial growth in microscale cultivation, E. coli; assay type: cell-based; details: relative to control; for activity at 0.3 µM / activity at 3 µM / activity at 30 µM: Escherichia coli
Experimental: (§1) The following bacteria were cultivated in the presence of trans-chalcone derived inhibitors: Corynebacterium glutamicum ATCC13032[43], Escherichia coli K-12 MG1655[44], Pseudomonas putida KT2440[45], and Bacillus subtilis 168[46]. The growth of these bacteria was monitored in flower-well plates shaken at 1200 rpm as backscatter at 620 nm (gain 20) using a BioLector® microscale cultivation system (m2p labs, Baesweiler, Germany). For further experimental details please refer to the Supplementary Information.
(§2) medium or the appropriate minimal medium and shaken at 140 rpm overnight. For inoculation of
(§3) the main culture, cells equivalent to an optical density at 600 nm of 0.5 (C. glutamicum, E. coli,
(§4) and P. putida) or 0.25 (B. subtilis) in 800 µL medium were washed and resuspended in fresh
(§5) media. Inhibitor substances were dissolved in DMSO and added to the media to a final
(§6) Since the least polar trans-chalcone and 2’-hydroxychalcone precipitated in the growth media at
(§7) the highest concentrations, the maximal concentration of these compounds was reduced to 400
(§8) µM and 100 µM, respectively. The final backscatter at 620 nm, the growth rate (h-1), and the
(§9) duration of the lag phase of all cultures were determined in a BioLector microscale cultivation
(§10) system in comparison to negative controls supplemented with the solvent DMSO. A longer lag

Bacillus subtilis 168 = assay: Bacterial growth in microscale cultivation, B. subtilis; assay type: cell-based; details: relative to control
Experimental: as §1, §2, §3, §4, §5, §6, §7, §8, §9, §10

## O=C(/C=C/c1cc(O)c(O)c(O)c1)c1ccc(O)cc1O [Compound 9, 2′,4′,3,4,5-Pentahydroxychalcone]
Amaranthus retroflexus
  Influence on plants: No
[1]; MG1655, complex medium, 0.3 µM, read-out: Final Backscatter
  activity at 0.3 µM: 100%
[1]; MG1655, complex medium, 0.3 µM, read-out: Growth rate
  activity at 0.3 µM: 103%
[1]; MG1655, complex medium, 3 µM, read-out: Final Backscatter
  activity at 3 µM: 99.7%
[1]; MG1655, complex medium, 3 µM, read-out: Growth rate
  activity at 3 µM: 95.4%
[1]; MG1655, complex medium, 30 µM, read-out: Final Backscatter
  activity at 30 µM: 98.2%
[1]; MG1655, complex medium, 30 µM, read-out: Growth rate
  activity at 30 µM: 87.6%
[1]; MG1655, minimal medium, 0.3 µM, read-out: Final Backscatter
  activity at 0.3 µM: 100%
[1]; MG1655, minimal medium, 0.3 µM, read-out: Growth rate
  activity at 0.3 µM: 106%
[1]; MG1655, minimal medium, 3 µM, read-out: Final Backscatter
  activity at 3 µM: 101%
[1]; MG1655, minimal medium, 3 µM, read-out: Growth rate
  activity at 3 µM: 110%
[1]; MG1655, minimal medium, 30 µM, read-out: Final Backscatter
  activity at 30 µM: 102%
[1]; MG1655, minimal medium, 30 µM, read-out: Growth rate
  activity at 30 µM: 110%
[1]; complex medium, 0.3 µM
  Lag Phase: 103,4%
[1]; complex medium, 3 µM
  Lag Phase: 103,4%
[1]; complex medium, 30 µM
  Lag Phase: 110,3%
[1]; minimal medium, 0.3 µM
  Lag Phase: 100,0%
[1]; minimal medium, 3 µM
  Lag Phase: 98,2%
[1]; minimal medium, 30 µM
  Lag Phase: 96,4%
Bacillus subtilis 168; Bacillus subtilis, 168, complex medium, 0.3 µM, read-out: Final Backscatter
  activity at 0.3 µM: 100%
Bacillus subtilis 168; Bacillus subtilis, 168, complex medium, 0.3 µM, read-out: Growth rate
  activity at 0.3 µM: 111%
Bacillus subtilis 168; Bacillus subtilis, 168, complex medium, 3 µM, read-out: Final Backscatter
  activity at 3 µM: 99.7%
Bacillus subtilis 168; Bacillus subtilis, 168, complex medium, 3 µM, read-out: Growth rate
  activity at 3 µM: 112%
Bacillus subtilis 168; Bacillus subtilis, 168, complex medium, 30 µM, read-out: Final Backscatter
  activity at 30 µM: 98.6%
Bacillus subtilis 168; Bacillus subtilis, 168, complex medium, 30 µM, read-out: Growth rate
  activity at 30 µM: 104%
Bacillus subtilis 168; Bacillus subtilis, 168, minimal medium, 0.3 µM, read-out: Final Backscatter
  activity at 0.3 µM: 104%
Bacillus subtilis 168; Bacillus subtilis, 168, minimal medium, 0.3 µM, read-out: Growth rate
  activity at 0.3 µM: 99.6%
Bacillus subtilis 168; Bacillus subtilis, 168, minimal medium, 3 µM, read-out: Final Backscatter
  activity at 3 µM: 103%
Bacillus subtilis 168; Bacillus subtilis, 168, minimal medium, 3 µM, read-out: Growth rate
  activity at 3 µM: 101%
Bacillus subtilis 168; Bacillus subtilis, 168, minimal medium, 30 µM, read-out: Final Backscatter
  activity at 30 µM: 107%
Bacillus subtilis 168; Bacillus subtilis, 168, minimal medium, 30 µM, read-out: Growth rate
  activity at 30 µM: 90.7%
Bacillus subtilis 168; complex medium, 0.3 µM
  Lag Phase: 100,0%
Bacillus subtilis 168; complex medium, 3 µM
  Lag Phase: 100,0%
Bacillus subtilis 168; complex medium, 30 µM
  Lag Phase: 97,4%
Bacillus subtilis 168; minimal medium, 0.3 µM
  Lag Phase: 91,7%
Bacillus subtilis 168; minimal medium, 3 µM
  Lag Phase: 98,8%
Bacillus subtilis 168; minimal medium, 30 µM
  Lag Phase: 94,1%
